These results are taken from US8642357B2, “Semaphorin 7A plays a critical role in TGF-β1-induced pulmonary fibrosis and alveolar destruction” (Yale University, priority 2009, dated 2014).

This data set relates to C57BL/6 female mice. The data set is described as follows: Bleomycin-induced pulmonary fibrosis and collagen accumulation. The class given is in vivo. The conditions noted are these: 0.075 Unit/mouse intratracheal; most impressive 3 weeks after administration. As to the method:
Animals were anesthetized, a median sternotomy was performed, and right heart perfusion was accomplished with calcium and magnesium-free phosphate-buffered saline (PBS). The heart and lungs were then removed en bloc. The right lung was frozen in liquid nitrogen and stored at −80° C. until used. Collagen content was determined by quantifying total soluble collagen using the Sircol Collagen Assay kit (Biocolor) according to the manufacturer's instructions. The data is expressed as the collagen content of the entire right lung.
The lungs were removed en bloc as described above, inflated at 25 cm pressure with PBS containing 0.5% low melting point agarose gel, fixed, embedded in paraffin, sectioned and stained. Hematoxylin and eosin, and Mallory's trichrome stains were performed in the Research Histology Laboratory of the Department of Pathology at the Yale University School of Medicine.
Bleomycin (0.075 Unit/mouse) or vehicle control were administered to C57BL/6 female mice as previously described by Jiang et al. (2004, J Clin Invest. 114:291-299).
Studies were also undertaken to determine if the biology of SEMA 7A that was defined using the Tg modeling system was also relevant to fibrotic responses that were induced by other stimuli. […]

As for Bleomycin, the “Pulmonary fibrosis and collagen accumulation” value is given as “significant increase”.
